The assay concerns ATMP-tdT Huh-7 cells. Nature of the assay: cis-P toxicity and ATM promoter activity assay. The class given is cell-based, human.
The mark [1] stands for this setting: cis-P plus factor, versus cis-P-treated cells.

ATM promoter activity and cell viability data for six molecules are collected here from US10287552B2, “Generation of hepatocytes from pluripotent stem cells” (ALBERT EINSTEIN COLLEGE OF MEDICINE, INC., priority 2012, dated 2019).

Regarding `N.N.[Cl][Pt][Cl]` [Cis-P, cis-platinum, reference compound], the ATM promoter activity entry (15 μM cis-P alone) is recorded as “increased”. Regarding “FGF1: growth factor identified in eFHLC-CM”, under setting [1], the ATM promoter activity result was “lowered ATM promoter activity” and the cell viability result is “improved cell viability”.

Regarding “FGF2: growth factor identified in eFHLC-CM”, under setting [1], the ATM promoter activity entry was “lowered ATM promoter activity” and the cell viability entry is recorded as “improved cell viability”. “IGF1: growth factor identified in eFHLC-CM”: under setting [1], the ATM promoter activity entry is “lowered ATM promoter activity” and the cell viability result was “improved cell viability”. Turning to VEGF, under setting [1], the ATM promoter activity result was “ineffective” and the cell viability result is “ineffective”.

B1: G-CSF: G-CSF (Amgen Inc.), factor identified in eFHLC-CM (protein, UniProt P09919 31-207, looked up)
Granulocyte …: TPLGPASSLPQSFLLKCLEQVRKIQGDGAALQEKLVSECATYKLCHPEELVLLGHSLGIPWAPLSSCPSQALQLAGCLSQLHSGLFLYQGLLQALEGISPELGPTLDTLQLDVADFATTIWQQMEELGMAPALQPTQGAMPAFASAFQRRAGGVLVASHLQSFLEVSYRVLRHLAQP
As to B1, under setting [1], the ATM promoter activity entry was “lowered ATM promoter activity” and the cell viability result is “improved cell viability”.
